Molecules are shown by their SMILES.

This series concerns human red blood cells (h-RBC). The experiment in a line: Hemolytic activity. The series is classed as cell-based. Here is the method: Experimental protocols to study hemolysis on human red cells were approved by Ethics Committee of the University “G. d’Annunzio” Chieti-Pescara. Human red cells were from two volunteers, who signed the informed consent for this study.
Hemolytic activity of carvacrol codrugs 1–10 was tested against human red blood cells (h-RBC). Fresh human blood, collected with EDTA, was centrifuged at 3000 rpm for 5 min then washed three times with PBS pH 7.3. Red blood cells were diluted to 4% in PBS and incubated with different codrugs concentrations ranging from 25 to 0.05 mg/mL. After 1 h of incubation at 37°C, the suspensions were sedimented by centrifugation and the release of hemoglobin was determined by absorbance measurement at 405 nm and compared with a 0% hemolysis control (PBS) and a 100% hemolysis control (PBS with 1% v/v Triton X-100). The percentage of hemolysis was calculated using the following equation: Hemolysis (%) = [(OD405sample - OD4050% lysis control)/(OD405100% lysis control - OD4050% lysis contro)] X 100

For the compound `C=CCSC[C@H](NC(C)=O)C(=O)Oc1cc(C(C)C)ccc1C` [codrug 4, N-Ac-Cys(Allyl)-CAR], where the note is “4% h-RBC, 1 h at 37°C”, the “concentration at which hemolytic activity is over 50%” value turned out to be 5000 µg/mL. For the same compound, the “hemolysis / toxicity at MIC values (in words)” value (h-RBC, at MIC values) is given as “not toxic at the MIC values”.

(Values after publication PMC4393269, “Carvacrol Codrugs: A New Approach in the Antimicrobial Plan” (PLoS ONE, 2015).)
